According to PMC12279208, “Targeted Penetrating Motif Engineering of BH3 Mimetic: Harnessing Non‐Canonical Amino Acids for Coinhibition of MCL‐1 and BCL‐xL in Acute Myeloid Leukemia” (Advanced Science, 2025):
Square brackets hold non-standard residues; d marks the D form. Peptide text beside a SMILES is read from it. Bpa = N[C@@H](Cc1ccc(C(=O)c2ccccc2)cc1)C(=O)O; Phe(4-Me) = Cc1ccc(C[C@H](N)C(=O)O)cc1; Met(O2) = CS(=O)(=O)CC[C@H](N)C(=O)O; Chg = N[C@H](C(=O)O)C1CCCCC1

Assays:
[1] = system: AML cells (THP-1) relative to HSCs; assay: Selectivity index calculation; type: cell-based, human; details: n = 5
Experimental: The selectivity index (SI) was calculated to assess the specificity of peptide drugs toward leukemia cells relative to normal human HSCs. The SI is defined as the ratio of the IC50 value for HSCs to the IC50 value for leukemia cell lines, as shown in the following formula:
SI=IC50HSCsIC50leukemia cells
(§1) The IC50 values of peptide drugs were determined in the experiments using the CCK-8 assay after a 24-hour incubation. The human acute leukemia cell line THP-1 was used as the leukemia cell model, while normal HSCs served as the control group. Higher SI values indicate greater selectivity of the peptide for leukemia cells over normal cells.

AML cells (THP-1) = assay: CCK-8 cytotoxicity for selectivity, 24 h; type: cell-based; details: Homo sapiens; THP-1, CCK-8, 24-hour incubation, n = 5
Experimental: as §1

[2] = system: HSCs (CD34+ hematopoietic stem cells from cord blood); assay: CCK-8 cytotoxicity for selectivity, 24 h; type: cell-based; details: Hematopoietic stem cell; human cord blood CD34+ HSCs, CCK-8, 24-hour incubation, n = 5; read-out: HSC IC50
Experimental: as §1

MCL-1 = target: T1, MCL-1 (Homo sapiens, UniProt Q07820); assay: Cell-free TR-FRET inhibition of MCL-1 binding to its peptide ligand; details: 3 h at room temperature, 0.25-1000 nM, n = 4
T1 construct: purchased BPS Biosciences 79506
Experimental: (§2) The inhibition of MCL-1 and BCL-xL binding to their respective ligands was quantified using time-resolved fluorescence resonance energy transfer (TR-FRET) assay kits (BPS Biosciences, Catalog Nos. 79506 and 50223). […] All samples and controls were run in quadruplicate, ensuring a final DMSO concentration below 0.1%. Selected hit compounds were tested at various concentrations: 0.25, 0.5, 1, 2, 4, 8, 16, 32, 64, 125, 500, and 1000 nM. The test assay components were prepared as follows: A 3× MCL TR-FRET assay buffer was diluted with two parts distilled water to create a 1× MCL TR-FRET assay buffer. The anti-His terbium-labeled donor and dye-labeled acceptor were diluted 200-fold in 1× MCL TR-FRET assay buffer. Each well received 5 μL of the anti-His terbium-labeled donor and dye-labeled acceptor mixture. In the negative control wells, 2 μL of inhibitor buffer and 1× MCL-1 TR-FRET assay buffer were added. For the positive control wells, 2 μL of inhibitor buffer and the MCL-1 peptide ligand were added. Subsequently, 2 μL of the diluted test inhibitor solution and the MCL-1 peptide ligand were added to the test inhibitor wells. Finally, 3 μL of diluted MCL-1 protein solution was added to each well, and the plate was incubated at room temperature for 3 hours.
(§3) TR-FRET Ratio=Emission at 665 nmEmission at 620 nm
(§4) The percent activity was calculated as follows:
(§5) Percent Activity=FRETsample-FRETnegFRETp-FRETneg×100%
(§6) where FRETsample is the sample FRET, FRETneg is the negative control FRET, and FRETp is the positive control FRET.

BCL-xL = target: T2, BCL-xL (Homo sapiens, UniProt Q07817); assay: Cell-free TR-FRET inhibition of BCL-xL binding to its peptide ligand; details: 3 h at room temperature, 0.25-1000 nM, n = 4
T2 construct: His; purchased BPS Biosciences 50223
Experimental: as §2, §3, §4, §5, §6

THP-1 cells = assay: Apoptosis detection, Annexin V-FITC/PI flow cytometry; type: cell-based, human; details: THP-1, Venetoclax 0.8 µM, 48 h
Experimental: (§7) Cell apoptosis was measured following the manufacturer's instructions for the Annexin V-FITC kit (Elabscience, E-CK-A211-100). 1 × 10⁵ cells were co-cultured with varying concentrations of peptides or Venetoclax in 24-well plates for 48 hours. After incubation, the cells were collected by centrifugation, washed with PBS, and incubated with Annexin V-FITC and PI staining solution for 15 minutes under light-protected conditions. Apoptosis was then identified and analyzed using a flow cytometer (Beckman CytoFLEX, USA)[18].

U-937 cells = assay: as above; type: cell-based, human; details: U-937, Venetoclax 8 µM, 48 h
Experimental: as §7

[3] = system: THP-1 luciferase-transplanted xenografts; assay: AML mouse model, THP-1 luciferase xenograft
Experimental: To establish the AML mouse model, the animals were intravenously (IV) injected with luciferase-transfected THP-1 cells (THP-1 luciferase; 1 × 10⁶ cells/200 μL). The mice were randomly assigned to one of five experimental groups. […] Venetoclax was formulated for oral administration in a solution comprising 60% phosal 50 propylene glycol (PG), 30% polyethylene glycol (PEG) 400, and 10% ethanol, provided by MedChemExpress[30]. Before administration, both Venetoclax and BH3 peptide stock solutions were freshly diluted to working concentrations with sterile normal saline. The mice were anesthetized and administered 200 µL of a 15 mg/mL luciferase substrate, D-luciferin potassium salt (Beyotime Biotech, ST196-500mg), intraperitoneally. The progression of AML dissemination in mice was monitored until the day of euthanasia using an in vivo optical imaging system (Tanon ABL-X6; Tanon, Shanghai, China). The results were expressed as total flux (photons/s; radiance photons) ± standard deviation (SD) in both in vivo and ex vivo studies. The extent of the leukemia burden was determined by flow cytometry of peripheral blood human CD45+ cells. During the third and fourth weeks of the study, blood was collected from the orbital sinuses of mice in each group. […] Flow cytometry was employed to ascertain the expression of hCD45 in PBMCs. […] Following the completion of the designated treatment period, five mice from each group were randomly selected and euthanized by CO₂ asphyxiation. […] The bone marrow (from the tibia and femur), spleen, and liver were minced and made into single-cell suspensions in PBS, followed by red blood cell lysis. The cells were then stained with hCD45-PE antibody and analyzed by flow cytometry.
Liver, lung, kidney, spleen, and left femur tissues were formalin-fixed and paraffin-embedded. Bone tissue was decalcified with 10% EDTA decalcification solution prior to paraffin embedding. Paraffin blocks were then sectioned at 2-4 μm thickness and mounted on microscope slides. Tissue sections were deparaffinized and rehydrated using 100% xylene and ethanol solutions of decreasing concentrations.

T1 sequence (Q07820 whole entry): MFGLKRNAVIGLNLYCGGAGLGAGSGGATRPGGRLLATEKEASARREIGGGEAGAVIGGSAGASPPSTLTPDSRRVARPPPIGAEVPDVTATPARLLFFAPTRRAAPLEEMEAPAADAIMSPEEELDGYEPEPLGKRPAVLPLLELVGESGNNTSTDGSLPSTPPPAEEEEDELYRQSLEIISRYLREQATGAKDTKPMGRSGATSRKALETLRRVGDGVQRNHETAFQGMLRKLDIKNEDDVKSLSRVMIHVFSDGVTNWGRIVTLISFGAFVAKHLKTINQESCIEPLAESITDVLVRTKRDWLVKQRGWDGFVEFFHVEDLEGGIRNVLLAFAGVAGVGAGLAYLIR
T2 sequence (Q07817 whole entry): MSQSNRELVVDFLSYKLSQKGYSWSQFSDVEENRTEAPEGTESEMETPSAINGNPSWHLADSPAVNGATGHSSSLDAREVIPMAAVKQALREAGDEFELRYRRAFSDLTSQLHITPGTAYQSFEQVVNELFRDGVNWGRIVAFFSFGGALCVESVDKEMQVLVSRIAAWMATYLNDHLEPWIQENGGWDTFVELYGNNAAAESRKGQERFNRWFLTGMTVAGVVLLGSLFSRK

What does the source list for Cc1cc2c(C(C)C)c(O)c(O)c(C=O)c2c(O)c1-c1c(C)cc2c(C(C)C)c(O)c(O)c(C=O)c2c1O [AT-101, (R)-(-)-Gossypol]?
Selectivity index (SI) combined with Venetoclax ([1]; IC50 HSCs / IC50 THP-1, in combination with Venetoclax (concentration not given)): 3.85; Selectivity index (SI) ([1]; IC50 HSCs / IC50 leukemia cells (THP-1), single agent): 3.56; IC50 (AML cells (THP-1)): 18900 nM; IC50 [2]: 67700 nM

For CC[C@H](C)[C@H](NC(=O)[C@H](CCCNC(=N)N)NC(=O)[C@H](CCCNC(=N)N)NC(=O)[C@H](CC(C)C)NC(=O)[C@H](CCC(=O)O)NC(=O)[C@H](CCC(N)=O)NC(=O)[C@H](C)NC(=O)[C@@H](NC(=O)[C@H](Cc1c[nH]c2ccccc12)NC(=O)[C@H](CCS(C)(=O)=O)NC(=O)[C@H](Cc1ccc(C(=O)c2ccccc2)cc1)NC(=O)[C@@H]1CCCN1)C1CCCCC1)C(=O)NCC(=O)N[C@@H](CC(=O)O)C(=O)N[C@@H](CCC(=O)O)C(=O)N[C@@H](Cc1ccc(C)cc1)C(=O)N[C@@H](CC(N)=O)C(=O)N[C@@H](C)C(=O)N[C@@H](Cc1ccc(O)cc1)C(=O)N[C@@H](Cc1ccc(O)cc1)C(=O)N[C@@H](C)C(N)=O [B] (H-P[Bpa][Met(O2)]W[Chg]AQELRRIGDE[Phe(4-Me)]NAYYA-NH2), which IC50 (MCL-1) is on record?
Its IC50 is 122 nM.

And the IC50 (BCL-xL)?
The IC50 was 412 nM.

What does the source list for CC[C@H](C)[C@H](NC(=O)[C@H](CCCNC(=N)N)NC(=O)[C@H](CCCNC(=N)N)NC(=O)[C@H](CC(C)C)NC(=O)[C@H](CCC(=O)O)NC(=O)[C@H](CCC(N)=O)NC(=O)[C@H](C)NC(=O)[C@@H](NC(=O)[C@H](Cc1c[nH]c2ccccc12)NC(=O)[C@H](CCS(C)(=O)=O)NC(=O)[C@H](CCC(=O)O)NC(=O)[C@@H]1CCCN1)C1CCCCC1)C(=O)NCC(=O)N[C@@H](CC(=O)O)C(=O)N[C@@H](CCC(=O)O)C(=O)N[C@@H](Cc1ccc(C)cc1)C(=O)N[C@@H](CC(N)=O)C(=O)N[C@@H](C)C(=O)N[C@@H](Cc1ccc(O)cc1)C(=O)N[C@@H](Cc1ccc(O)cc1)C(=O)N[C@@H](C)C(N)=O [C] (H-PE[Met(O2)]W[Chg]AQELRRIGDE[Phe(4-Me)]NAYYA-NH2)?
IC50 (MCL-1): 48.9 nM; IC50 (BCL-xL): 278 nM

Which IC50 (MCL-1) does the source give for CC[C@H](C)[C@H](NC(=O)[C@H](CCCNC(=N)N)NC(=O)[C@H](CCCNC(=N)N)NC(=O)[C@H](CC(C)C)NC(=O)[C@H](CCC(=O)O)NC(=O)[C@H](CCC(N)=O)NC(=O)[C@H](C)NC(=O)[C@@H](NC(=O)[C@H](Cc1c[nH]c2ccccc12)NC(=O)[C@@H](NC(=O)[C@H](CCC(=O)O)NC(=O)[C@@H]1CCCN1)[C@@H](C)CC)C1CCCCC1)C(=O)NCC(=O)N[C@@H](CC(=O)O)C(=O)N[C@@H](CCC(=O)O)C(=O)N[C@@H](Cc1ccc(C)cc1)C(=O)N[C@@H](CC(N)=O)C(=O)N[C@@H](C)C(=O)N[C@@H](Cc1ccc(O)cc1)C(=O)N[C@@H](Cc1ccc(O)cc1)C(=O)N[C@@H](C)C(N)=O [D] (H-PEIW[Chg]AQELRRIGDE[Phe(4-Me)]NAYYA-NH2) here?
The IC50 was 25.4 nM.

And the IC50 (BCL-xL)?
The IC50 was 58.5 nM.

Which results are given for CC[C@H](C)[C@H](NC(=O)[C@H](CCCNC(=N)N)NC(=O)[C@H](CCCNC(=N)N)NC(=O)[C@H](CC(C)C)NC(=O)[C@H](CCC(=O)O)NC(=O)[C@H](CCC(N)=O)NC(=O)[C@H](C)NC(=O)[C@@H](NC(=O)[C@H](Cc1c[nH]c2ccccc12)NC(=O)[C@@H](NC(=O)[C@H](CCC(=O)O)NC(=O)[C@@H]1CCCN1)[C@@H](C)CC)C1CCCCC1)C(=O)NCC(=O)N[C@@H](CC(=O)O)C(=O)N[C@@H](CCC(=O)O)C(=O)N[C@@H](Cc1ccccc1)C(=O)N[C@@H](CC(N)=O)C(=O)N[C@@H](C)C(=O)N[C@@H](Cc1ccc(O)cc1)C(=O)N[C@@H](Cc1ccc(O)cc1)C(=O)N[C@@H](C)C(N)=O [F] (H-PEIW[Chg]AQELRRIGDEFNAYYA-NH2)?
IC50 (MCL-1): 9.77 nM; IC50 (BCL-xL): 30.8 nM

How did the IC50 (MCL-1) turn out when CC[C@H](C)[C@H](NC(=O)[C@H](CCCNC(=N)N)NC(=O)[C@H](CCCNC(=N)N)NC(=O)[C@H](CC(C)C)NC(=O)[C@H](CCC(=O)O)NC(=O)[C@H](CCC(N)=O)NC(=O)[C@H](C)NC(=O)[C@@H](NC(=O)[C@H](Cc1c[nH]c2ccccc12)NC(=O)[C@H](CCS(C)(=O)=O)NC(=O)[C@H](Cc1ccc(C(=O)c2ccccc2)cc1)NC(=O)[C@@H]1CCCN1)[C@@H](C)CC)C(=O)NCC(=O)N[C@@H](CC(=O)O)C(=O)N[C@@H](CCC(=O)O)C(=O)N[C@@H](Cc1ccc(C)cc1)C(=O)N[C@@H](CC(N)=O)C(=O)N[C@@H](C)C(=O)N[C@@H](Cc1ccc(O)cc1)C(=O)N[C@@H](Cc1ccc(O)cc1)C(=O)N[C@@H](C)C(N)=O [G] (H-P[Bpa][Met(O2)]WIAQELRRIGDE[Phe(4-Me)]NAYYA-NH2) was run?
Its IC50 is 206 nM.

And the IC50 (BCL-xL)?
Its IC50 is 565 nM.

Which results are given for CC1(C)CCC(CN2CCN(c3ccc(C(=O)NS(=O)(=O)c4ccc(NCC5CCOCC5)c([N+](=O)[O-])c4)c(Oc4cnc5[nH]ccc5c4)c3)CC2)=C(c2ccc(Cl)cc2)C1 [Venetoclax]?
Apoptosis (THP-1 cells): 47.3%; Apoptosis (U-937 cells): 49.3%; Average body weight at study end ([3]; 30 days, same regimens, n = 12, Vehicle ≈19 g): ≈ 20 g; Bioluminescence (tumor burden) over 30 days ([3]; Venetoclax 25 mg kg−1 p.o., TAT-I or vMIP-II-TAT-I 1.5 µmol kg−1 i.v., Combination both, every 2 days, n = 5): minimal therapeutic efficacy; Median survival ([3]; Venetoclax 25 mg kg−1 p.o., TAT-I or vMIP-II-TAT-I 1.5 µmol kg−1 i.v., Combination both, every 2 days, n = 7, Vehicle 35 days): 37 days; hCD45+ cells in PBMCs ([3]; week 3, flow cytometry, n = 5, Vehicle ≈7%): ≈ 5%
